Measurements taken from US20240122178A1, “CAFFEIC ACID-BASED COMPOSITE MATERIAL AND PREPARATION METHOD THEREOF” (ZHEJIANG UNIVERSITY, priority 2021, published 2024).

Assay: caffeic acid loading rate of carrier incubated with caffeic acid solution in ethanol
Assay type: physicochemical
Details: optimal loading conditions: molar ratio γ-cyclodextrin to caffeic acid 1:64, loading time 900 minutes, 40° C.
Method: In one embodiment, under the conditions of reaction temperature of 40° C. and reaction time of 900 minutes, the effects of different ratios of the cyclodextrin metal-organic framework material to caffeic acid (a molar ratio of γ-cyclodextrin in the cyclodextrin metal-organic framework material to caffeic acid is 1:4, 1:8, 1:32, 1:64 and 1:128, respectively) on the caffeic acid loading rate are compared. From the results, it can be seen that when the molar ratio of γ-cyclodextrin to caffeic acid in the cyclodextrin metal-organic framework composite is 1:4, the caffeic acid loading rate […]; with the increase of caffeic acid dosage, the caffeic acid loading rate gradually increases, and the increase of the loading rate is no longer obvious after increasing to 1:64. Therefore, the molar ratio of γ-cyclodextrin in the cyclodextrin metal-organic framework material to caffeic acid is selected from 1:4 to 1:128, further from 1:32 to 1:128, further from […], still further from 1: 60-70, and most preferably is 1:64.
In one embodiment, the effects of different incubating time (10, 20, 60, 180, 360, 720, 900, 2160 minutes) on the caffeic acid loading rate are compared under the conditions: the molar ratio of γ-cyclodextrin in the cyclodextrin metal-organic framework material to caffeic acid being 1:64 and the reaction temperature being 40° C. […]

caffeic acid loading rate: 7.28%
Structure (SMILES): OC[C@H]1O[C@@H]2O[C@H]3[C@H](O)[C@@H](O)[C@@H](O[C@H]4[C@H](O)[C@@H](O)[C@@H](O[C@H]5[C@H](O)[C@@H](O)[C@@H](O[C@H]6[C@H](O)[C@@H](O)[C@@H](O[C@H]7[C@H](O)[C@@H](O)[C@@H](O[C@H]8[C@H](O)[C@@H](O)[C@@H](O[C@H]9[C@H](O)[C@@H](O)[C@@H](O[C@H]1[C@H](O)[C@H]2O)O[C@@H]9CO)O[C@@H]8CO)O[C@@H]7CO)O[C@@H]6CO)O[C@@H]5CO)O[C@@H]4CO)O[C@@H]3CO [γ-cyclodextrin]
